We go through one substance from patent EP0498680A1, “New beta-amino-alpha-hydroxycarboxylic acids and their use” (Sankyo Company Limited, priority 1991, dated 1992).

In the assay the test system is HIV. Kind of assay: Inhibition of HIV proliferation in CEM cells. In kind it is cell-based. The settings on record: 1 µM (0.6 µg/ml) of the test compound, 1 week. Here is the method:
CEM cells were inoculated in growth medium as defined in a) above, to a density of 2 x 10⁴ cells/ml. The inoculum was then seeded with a similar volume of serial 1 : 3 dilutions of the viral stock [a filtered preparation of the 48-hour culture supernatant of Molt4/HTLVIIIB cells prepared as described in Test Example 3 a) above]. The seeded inoculum was then cultured at 37°C under a 5% carbon dioxide atmosphere in the presence of 1 µM of the test compound (compound no. 14). After 1 week, the culture was spun down and the supernatant was collected. HIV antigen in the supernatant was determined as described in b) above.

Turning to “(2S,3S)-[3-(N-3′-Hydroxyquinoxaline-2′-carbonyl-L-asparaginyl)amino-2-hydroxy-4-phenylbutyryl]-L-proline t-butyl ester [Compound No. 14]”, the “spread of HIV (HIV antigen in the supernatant)” value is “sufficient to block the spread of HIV almost completely”.
